# Experimental data as given in publication PMC5118709, “Identification of Polo-like kinase 1 interaction inhibitors using a novel cell-based assay” (Scientific Reports, 2016).
# Target: GST-PBD367-603 of Plk1 (Homo sapiens, UniProt P53350)
# Experiment: fluorescence polarization assay PBD-phosphopeptide
# Details: FP - IC50 (μM), Table S3
# Sequence of GST-PBD367-603 of Plk1 (P53350 367-603): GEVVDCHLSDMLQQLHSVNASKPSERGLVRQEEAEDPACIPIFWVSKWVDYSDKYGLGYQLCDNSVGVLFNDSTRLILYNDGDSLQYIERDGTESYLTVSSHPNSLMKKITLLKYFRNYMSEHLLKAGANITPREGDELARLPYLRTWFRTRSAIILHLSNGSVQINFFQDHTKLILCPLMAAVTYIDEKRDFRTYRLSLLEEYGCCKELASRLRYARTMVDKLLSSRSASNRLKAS
row,IC50 [µM],SMILES
1,68.6 ± 18.5,O=C(OCCS(=O)(=O)c1ccccn1)c1ccccc1 [Cpd 124]

# Same assay, conditions: IC50 in FP, GST-PBD367-603 38 nM, 1 h pre-incubation, FITC-phosphopeptide 10 nM, Fig. 4C
row,IC50 [µM],SMILES
1,56,O=C(OCCS(=O)(=O)c1ccccn1)c1ccccc1 [Cpd 124]

# Same assay, conditions: SAR
row,activity in the FP assay,SMILES
1,completely abrogated activity,"Cc1cc(C(F)(F)F)cc(S(=O)(=O)CCO)n1 [Cpd 158, 2-((6-methyl-4-(trifluoromethyl)pyridin-2-yl)sulfonyl)ethanol]"
2,activity was abolished,"Cc1cc(C(F)(F)F)cc([S+]([O-])CCOC(=O)c2cccc(Cl)c2)n1 (stereo not shown) [Cpd 148, 2-((6-methyl-4-(trifluoromethyl)pyridin-2-yl)sulfinyl)ethyl 3-chlorobenzoate]"
3,completely abrogated activity,"CCS(=O)(=O)c1cc(C(F)(F)F)cc(C)n1 [Cpd 169, 2-(ethylsulfonyl)-6-methyl-4-(trifluoromethyl)pyridine]"
4,activity was abolished,"Cc1cc(C(F)(F)F)cc(SCCOC(=O)c2cccc(Cl)c2)n1 [Cpd 147, 2-((6-methyl-4-(trifluoromethyl)pyridin-2-yl)thio)ethyl 3-chlorobenzoate]"

# Same assay, conditions: Table S3
row,SMILES,FP - IC50 (μM)
1,Cc1cc(C(F)(F)F)cc(S(=O)(=O)CCOCc2cccc(Cl)c2)n1 [Cpd 159],No inhibition
2,Cc1cccc(C(=O)OCCSc2cc(C(F)(F)F)cc(C)n2)c1 [Cpd 150],No inhibition
3,O=[N+]([O-])c1cccc(S(=O)(=O)NCCOc2cccc(Cl)c2Cl)c1 [Cpd 139],No inhibition
4,Cc1cc(C(F)(F)F)cc(SCCOC(=O)C2CCCCC2)n1 [Cpd 168],No inhibition
5,O=S(=O)(CC(O)COc1ccccc1)c1ccccn1 (stereo not shown) [Cpd 136],No inhibition
6,Cc1cc(C(F)(F)F)cc(SCCOC(=O)c2cccc(Br)c2)n1 [Cpd 153],No inhibition
7,CC(CC(=O)Nc1ccc(Cl)cc1)S(=O)(=O)c1ccc(Cl)cc1 (stereo not shown) [Cpd 141],No inhibition
8,"CCS(=O)(=O)c1cc(C(F)(F)F)cc(C)n1 [Cpd 169, 2-(ethylsulfonyl)-6-methyl-4-(trifluoromethyl)pyridine]",No inhibition

# The remaining lines, values ahead:
row,FP - IC50 (μM),SMILES
1,No inhibition,Cc1ccc(S(=O)(=O)CCC(=O)Nc2cccc(Cl)c2)cc1 [Cpd 137]
2,No inhibition,O=C(CS(=O)(=O)c1cc(C(F)(F)F)cc(C(F)(F)F)c1)Nc1ccccc1F [Cpd 143]
3,No inhibition,"Cc1cc(C(F)(F)F)cc(S(=O)(=O)CCO)n1 [Cpd 158, 2-((6-methyl-4-(trifluoromethyl)pyridin-2-yl)sulfonyl)ethanol]"
4,No inhibition,Cc1cc(C(F)(F)F)cc(SCCOCc2cccc(Cl)c2)n1 [Cpd 157]
5,No inhibition,"Cc1cc(C(F)(F)F)cc(SCCO)n1 [Cpd 146, 2-((6-methyl-4-(trifluoromethyl)pyridin-2-yl)thio) ethanol]"
6,No inhibition,"Cc1cc(C(F)(F)F)cc([S+]([O-])CCOC(=O)c2cccc(Cl)c2)n1 (stereo not shown) [Cpd 148, 2-((6-methyl-4-(trifluoromethyl)pyridin-2-yl)sulfinyl)ethyl 3-chlorobenzoate]"
7,No inhibition,"Cc1cc(C(F)(F)F)cc(SCCOC(=O)c2cccc(Cl)c2)n1 [Cpd 147, 2-((6-methyl-4-(trifluoromethyl)pyridin-2-yl)thio)ethyl 3-chlorobenzoate]"

# Same assay, conditions: read-out: FP - IC50; Table S3
row,SMILES,IC50 [µM]
1,O=C(OCCS(=O)(=O)c1ccc([N+](=O)[O-])cn1)c1cccc(Cl)c1 [Cpd 133],5.4
2,Cc1cc(C(F)(F)F)cc(S(=O)(=O)CCOC(=O)c2cccc(Br)c2)n1 [Cpd 154],36.8
3,Cc1cc(C(F)(F)F)cc(S(=O)(=O)CCOC(=O)c2cccc(OC(F)(F)F)c2)n1 [Cpd 151],41.7
4,Cc1cc(C(F)(F)F)cc(S(=O)(=O)CCOC(=O)c2cc(Cl)cc(Cl)c2)n1 [Cpd 156],48.1
5,"Cc1cc(C(F)(F)F)cc(S(=O)(=O)CCOS(C)(=O)=O)n1 [Cpd 164, 2-((6-methyl-4-(trifluoromethyl)pyridin-2-yl)sulfonyl) ethyl methanesulfonate]",6
6,Cc1ccc(C(=O)OCCS(=O)(=O)c2ccc(C(F)(F)F)cn2)cc1 [Cpd 123],7.2
7,O=C(OCCS(=O)(=O)c1ncccc1Cl)c1cccc(Cl)c1 [Cpd 126],4.3

# The remaining lines, values ahead:
row,IC50 [µM],SMILES
1,7.8,O=C(OCCS(=O)(=O)c1ccc(C(F)(F)F)cn1)c1ccc(Cl)c(Cl)c1 [Cpd 130]
2,8.4,O=C(OCCS(=O)(=O)c1ncccc1C(F)(F)F)c1cccc(Cl)c1 [Cpd 128]
3,8.5,O=C(OCCS(=O)(=O)c1ccc(C(F)(F)F)cn1)c1ccccc1 [Cpd 129]
4,54.4,Cc1cccc(C(=O)OCCS(=O)(=O)c2cc(C(F)(F)F)cc(C)n2)c1 [Cpd 152]
5,187,O=C(OCCS(=O)(=O)c1ccccn1)c1cccc(Cl)c1 [Cpd 127]
6,11.9 ± 7.2,O=C(OCCS(=O)(=O)c1ccc(C(F)(F)F)cn1)c1cccc(Cl)c1 [Cpd 125]
